The values that follow come from ChEMBL document CHEMBL1139288, “A simple synthesis of four stereoisomers of roseoside and their inhibitory activity on leukotriene release from mice bone marrow-derived cultured mast cells” (2009).

Molecules are shown by their SMILES.

This test is described as follows: Inhibition of leukotriene release in ICR mouse BMCMC […] after 6 hrs by ELISA. The format is functional. For orientation: An ELISA detects its analyte on a solid surface through an enzyme-linked reagent.
Turning to `CC1=CC(=O)CC(C)(C)[C@]1(O)/C=C/[C@@H](C)O[C@@H]1O[C@H](CO)[C@@H](O)[C@H](O)[C@H]1O`, the “inhibition (INH)” value is given as 22.9%.
On to `CC1=CC(=O)CC(C)(C)[C@@]1(O)/C=C/[C@H](C)O[C@@H]1O[C@H](CO)[C@@H](O)[C@H](O)[C@H]1O` [6S,9S-ROSEOSIDE], for which the “inhibition (INH)” value is recorded as 70.3%.
With `CC1=CC(=O)CC(C)(C)[C@@]1(O)/C=C/[C@@H](C)O[C@@H]1O[C@H](CO)[C@@H](O)[C@H](O)[C@H]1O` [6S,9R-ROSEOSIDE], the “inhibition (INH)” value amounted to 67.4%.
As to `CC1=CC(=O)CC(C)(C)[C@]1(O)/C=C/[C@H](C)O[C@@H]1O[C@H](CO)[C@@H](O)[C@H](O)[C@H]1O`, the “inhibition (INH)” value worked out at 36.7%.
